System: 354836-022-R-J1-PDC multicell spheroid viability
Assay: Anticancer human tumor 354836-022-R-J1-PDC patient-derived head and neck squamous cell carcinoma cell line growth inhibition [PI3K]
Conditions: for viability, T/C: stronger effect = lower value; active = viability on the fitted dose curve at most 10% of control; inactive = the rest
Outline: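 Viability of mixed-cell spheroids was determined after exposure to pairwise combinations, one partner being inavolisib, alpelisib, duvelisib or copanlisib. Highest tested concentration matched clinical Cmax where known and 10 microM where not, descending in half-log steps.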

[1] = curve of first compound, second compound 0.00316 µM
[2] = curve of first compound, second compound 0.01 µM
[3] = curve of first compound, second compound 0.0316 µM
[4] = curve of first compound, second compound 0.1 µM
[5] = curve of first compound, second compound 0.316 µM
[6] = curve of first compound, second compound 1 µM
[7] = second compound 0.00316 µM, first compound 0.0316 µM
[8] = second compound 0.00316 µM, first compound 0.1 µM
[9] = second compound 0.00316 µM, first compound 0.316 µM
[10] = second compound 0.00316 µM, first compound 1 µM
[11] = second compound 0.00316 µM, first compound 3.16 µM
[12] = second compound 0.00316 µM, first compound 10 µM
[13] = second compound 0.01 µM, first compound 0.0316 µM
[14] = second compound 0.01 µM, first compound 0.1 µM
[15] = second compound 0.01 µM, first compound 0.316 µM
[16] = second compound 0.01 µM, first compound 1 µM
[17] = second compound 0.01 µM, first compound 3.16 µM
[18] = second compound 0.01 µM, first compound 10 µM
[19] = second compound 0.0316 µM, first compound 0.0316 µM
[20] = second compound 0.0316 µM, first compound 0.1 µM
[21] = second compound 0.0316 µM, first compound 0.316 µM
[22] = second compound 0.0316 µM, first compound 1 µM
[23] = second compound 0.0316 µM, first compound 3.16 µM
[24] = second compound 0.0316 µM, first compound 10 µM
[25] = second compound 0.1 µM, first compound 0.0316 µM
[26] = second compound 0.1 µM, first compound 0.1 µM
[27] = second compound 0.1 µM, first compound 0.316 µM
[28] = second compound 0.1 µM, first compound 1 µM
[29] = second compound 0.1 µM, first compound 3.16 µM
[30] = second compound 0.1 µM, first compound 10 µM
[31] = second compound 0.316 µM, first compound 0.0316 µM
[32] = second compound 0.316 µM, first compound 0.1 µM
[33] = second compound 0.316 µM, first compound 0.316 µM
[34] = second compound 0.316 µM, first compound 1 µM
[35] = second compound 0.316 µM, first compound 3.16 µM
[36] = second compound 0.316 µM, first compound 10 µM
[37] = second compound 1 µM, first compound 0.0316 µM
[38] = second compound 1 µM, first compound 0.1 µM
[39] = second compound 1 µM, first compound 0.316 µM
[40] = second compound 1 µM, first compound 1 µM
[41] = second compound 1 µM, first compound 3.16 µM
[42] = second compound 1 µM, first compound 10 µM
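Note: spheroids exposed to agents for seven days before the viability read.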

C=CC(=O)N1CCN(c2nc(=O)n(-c3c(C)ccnc3C(C)C)c3nc(-c4c(O)cccc4F)c(F)cc23)C(C)C1 (stereo not given) + COc1c(OCCCN2CCOCC2)ccc2c3n(c(=NC(=O)c4cnc(N)nc4)nc12)CCN3
active: viability, T/C [37] 1.79% | viability, T/C [38] 1.75% | viability, T/C [39] 1.72% | viability, T/C [40] 2.49% | viability, T/C [41] 1.82% | viability, T/C [42] 1.3%
inactive: viability, T/C [7] 96.3% | viability, T/C [8] 106% | viability, T/C [9] 109% | viability, T/C [10] 108% | viability, T/C [11] 118% | viability, T/C [12] 116% | viability, T/C [13] 97.7% | viability, T/C [14] 99% | viability, T/C [15] 98.5% | viability, T/C [16] 102% | viability, T/C [17] 105% | viability, T/C [18] 90.4% | viability, T/C [19] 83.2% | viability, T/C [20] 83.5% | viability, T/C [21] 72% | viability, T/C [22] 82.6% | viability, T/C [23] 110% | viability, T/C [24] 95.4% | viability, T/C [25] 61.4% | viability, T/C [26] 45.3% | viability, T/C [27] 59.2% | viability, T/C [28] 62.8% | viability, T/C [29] 61.5% | viability, T/C [30] 55.6% | viability, T/C [31] 14.3% | viability, T/C [32] 16.2% | viability, T/C [33] 16.2% | viability, T/C [34] 18.4% | viability, T/C [35] 25.9% | viability, T/C [36] 13%
> 10000 nM: IC50 [1] | IC50 [2] | IC50 [3] | IC50 [4]
< 31.6 nM: IC50 [5] | IC50 [6]

C#Cc1c(F)ccc2cc(O)cc(-c3ncc4c(N5CC6CCC(C5)N6)nc(OCC56CCCN5CC(F)C6)nc4c3F)c12 (stereo not given)
> 10000 nM: IC50 (curve of compound)
inactive: viability, T/C (compound 0.0316 µM) 101% [middle of 4 runs] | viability, T/C (compound 0.1 µM) 101% [middle of 4 runs] | viability, T/C (compound 1 µM) 87.7% [middle of 4 runs] | viability, T/C (compound 3.16 µM) 95.4% [middle of 4 runs] | viability, T/C (compound 10 µM) 90.5% [middle of 4 runs]

CC(C)NCC(C(=O)N1CCN(c2ncnc3c2C(C)CC3O)CC1)c1ccc(Cl)cc1 (stereo not given) + CC(Nc1ccc2c(c1)OCCn1cc(N3C(=O)OCC3C(F)F)nc1-2)C(N)=O
202 nM: IC50 [5]
active: viability, T/C [18] 8.88% | viability, T/C [36] 7.58% | viability, T/C [42] 9.1%
72.2 nM: IC50 [6]
328 nM: IC50 [2]
333 nM: IC50 [3]
590 nM: IC50 [4]
inactive: viability, T/C [7] 82.9% | viability, T/C [8] 69.4% | viability, T/C [9] 42.8% | viability, T/C [10] 26.7% | viability, T/C [11] 22.1% | viability, T/C [12] 12.5% | viability, T/C [13] 95.5% | viability, T/C [14] 68.5% | viability, T/C [15] 58.2% | viability, T/C [16] 24.4% | viability, T/C [17] 22.3% | viability, T/C [19] 74.5% | viability, T/C [20] 75% | viability, T/C [21] 45.8% | viability, T/C [22] 31.9% | viability, T/C [23] 21.3% | viability, T/C [24] 10.8% | viability, T/C [25] 75.4% | viability, T/C [26] 73.6% | viability, T/C [27] 68.5% | viability, T/C [28] 34.2% | viability, T/C [29] 18.6% | viability, T/C [30] 8.92% | viability, T/C [31] 62.4% | viability, T/C [32] 58.6% | viability, T/C [33] 44.7% | viability, T/C [34] 28.4% | viability, T/C [35] 16.2% | viability, T/C [37] 56.7% | viability, T/C [38] 45.9% | viability, T/C [39] 38.9% | viability, T/C [40] 28% | viability, T/C [41] 15.8%
242 nM: IC50 [1]
